Patent publication US8911935B2, “Mitochondria and human immunodefiency virus type 1” (New York University, priority 2011, dated 2014)
“Also recorded” adds a separate entry of the source.

Tests used:
HIV-1 [1] = assay: Live-cell fluorescence imaging of cell-to-cell transmission of HIV-1, pre-treated H9 cells co-cultured with GFP-MT2 target cells; format: cell-based, Human immunodeficiency virus type 1 (HIV-1); details: FIG. 4C-3; for cell-to-cell spread of HIV-1, VS and syncytia formation: H9 cells pre-treated 3 hours (CCCP 10 μM, antimycin A 2.4 μM, oligomycin 2.4 μM), washed, co-cultured with GFP-MT2
Description: (§1) HIV-1 infected H9 cells were fluorescently labeled with MitoTracker Red CMXRos to stain mitochondria red, and with Hoechst 33342 to stain DNA blue according to the manufacturer's protocols (Molecular Probes). Uninfected MT2 target cells were labeled green by the expression of green fluorescent protein (GFP-MT2). Cells were co-cultured and imaged on a glass bottom 96-well plate (MatTek, Ashland, Mass.) in RPMI 1640 medium containing 10% heat-inactivated fetal calf serum, 2 mM L-glutamine, 100 U/ml penicillin and 100 μg/ml streptomycin (complete medium). Labeled HIV-1 infected H9 cells were washed 3 times with complete medium to remove any residual free virus and free dye. Washed cells were suspended in complete medium at a density of 5×10^5 cells/ml. 100 μl of this cell suspension, containing 50,000 cells, were plated into each well. 100,000 GFP-MT2 target cells in 100 μl were then added to each well, to give a ratio of 1:2 of infected to uninfected target cells.
Live-cell real-time images and time lapse movies were collected at 37° C., 5% CO2 using a microplate incubator, with precision temperature, humidity and CO2 controls, mounted on the microscope stage of a Leica inverted microscope equipped with an automatic power stage and an AF6000 camera. Phase contrast, blue (Hoechst 33342), green (GFP), and red (MitoTracker) channels were used for imaging. Images were collected at 0.5 min or 5 min intervals for 18-24 hours. Image analysis was performed using LCSAF software.

HIV-1 infected H9 cells = assay: Cell death of HIV-1 infected H9 cells on pre-treatment with mitochondrial inhibitors; details: pre-treatment for 3 hours; CCCP 10 μM, antimycin A 2.4 μM, oligomycin 2.4 μM
Description: To verify that functional mitochondria are essential for cell-to-cell transmission of the virus, we pre-treated HIV-1 infected H9 cells with mitochondrial inhibitors including carbonyl cyanide m-chlorophenylhydrazone (CCCP, 10 μM), antimycin A (2.4 μM), and oligomycin (2.4 μM) for 3 hours [14].

HIV-1 [2] = assay: Syncytia formation assay in co-cultures of HIV-1 infected H9 cells with MT2 target cells; format: cell-based, Human immunodeficiency virus type 1 (HIV-1); details: Human immunodeficiency virus 1, H9, 3 h, HIV-infected H9 cells treated with 10 μM CCCP for 3 hours, then co-cultured with MT2 target cells
Description: as §1, with “100 μl of this cell suspension, containing 50,000 cells, were plated into each well. 100,000 GFP-MT2 target cells in 100 μl were then added to each well, to give a ratio of 1:2 of infected to uninfected target cells.” left out
Acute HIV infection of the target cells as a result of cell-to-cell transmission of the virus was measured by syncytia formation assay. Focal syncytium formation was scored under an inverted microscope.
(§2) For quantitation of syncytial formation and HIV p24 production, data are means±standard deviations of four independent experiments. […]
(§3) To confirm that mitochondria from HIV infected cells serve as viral reservoirs and carry the virus into the uninfected target cells, the present inventors quantitated viral infection and replication in the co-cultures by syncytia formation and viral antigen p24 production. […]

HIV-1 core protein p24 = assay: HIV-1 p24 assay (ELISA) in co-culture supernatants; format: cell-based, Human immunodeficiency virus type 1 (HIV-1); details: HIV-infected H9 cells treated with CCCP, co-cultured with MT2 target cells; supernatant
Description: as §1, with “cells. […]” for “cells.”
as §2, §3

[3] = system: human pancreatic cancer PANC-1 cells; details: glucose-deprived conditions; cited from earlier work

Compound | cell-to-cell spread of HIV-1, VS and syncytia formation (HIV-1 [1]) | cell death (HIV-1 infected H9 cells) | inhibition at 10 µM (HIV-1 [2]) | reduction of p24 expression (HIV-1 core protein p24) | syncytia formation in fluorescent images (HIV-1 [1]; CCCP-treated HIV-1 infected H9 cells co-cultured with GFP-MT2 target cells) | cytotoxicity [3]
CC[C@H]1/C=C/C=C/C[C@@H](C)[C@H](O)[C@@](C)(O)C(=O)[C@@H](C)[C@H](O)[C@@H](C)C(=O)[C@@H](C)[C@H](O)[C@@H](C)/C=C/C(=O)O[C@@H]2[C@H](C)[C@H](CC1)O[C@]1(CC[C@H](C)[C@H](C[C@@H](C)O)O1)[C@H]2C [oligomycin] | reduced cell-to-cell spread of HIV-1 and decreased VS and syncytia formation | no cell death | – | – | – | –
N#CC(C#N)=NNc1cccc(Cl)c1 [CCCP, carbonyl cyanide m-chlorophenylhydrazone] | reduced cell-to-cell spread of HIV-1 and decreased VS and syncytia formation | no cell death | ~95% | about 95% | inhibits syncytia formation; also recorded: blocked syncytia formation | –
efrapeptin F | – | – | – | – | – | preferential cytotoxicity
antimycin A | reduced cell-to-cell spread of HIV-1 and decreased VS and syncytia formation | no cell death | – | – | – | –
